Data from PubChem BioAssay AID1259407 (Chemical Carcinogenesis Research Information System (CCRIS), 2018).
Activity calls are given as the source filed them. How the calls were made is not given here.

Tested on: CCRIS mutagenicity, Ames/micronucleus/aberration tests
Assay: CCRIS mutagenicity studies
[1] = Test System: AMES SALMONELLA TYPHIMURIUM, Strain/Indicator: TA98, Metabolic Activation: RAT, LIVER, S-9, AROCLOR 1254, Method: STANDARD PLATE
[2] = Test System: AMES SALMONELLA TYPHIMURIUM, Strain/Indicator: TA100, Metabolic Activation: NONE, Method: STANDARD PLATE

SMILES: Nc1ccc2cc3ccc(N)cc3nc2c1
- mutagenic call (Test System: AMES SALMONELLA TYPHIMURIUM, Strain/Indicator: TA98, Metabolic Activation: HAMSTER, LIVER, S-9, AROCLOR 1254, Method: STANDARD PLATE): active; positive
- mutagenic call (Test System: AMES SALMONELLA TYPHIMURIUM, Strain/Indicator: TA98, Metabolic Activation: HAMSTER, LIVER, S-9, Method: STANDARD PLATE): active; positive
- mutagenic call (Test System: AMES SALMONELLA TYPHIMURIUM, Strain/Indicator: TA98, Metabolic Activation: MOUSE, LIVER, S-9, AROCLOR 1254, Method: STANDARD PLATE): active; positive
- mutagenic call (Test System: AMES SALMONELLA TYPHIMURIUM, Strain/Indicator: TA98, Metabolic Activation: MOUSE, LIVER, S-9, Method: STANDARD PLATE): active; positive
- mutagenic call (Test System: AMES SALMONELLA TYPHIMURIUM, Strain/Indicator: TA98, Metabolic Activation: NONE, Method: FLUCTUATION (MICROTITER)): active; positive
- mutagenic call [1]: active; positive
- mutagenic call (Test System: AMES SALMONELLA TYPHIMURIUM, Strain/Indicator: TA98, Metabolic Activation: RAT, LIVER, S-9, Method: STANDARD PLATE): active; positive
- mutagenic call [2]: inactive; negative
- mutagenic call (Test System: AMES SALMONELLA TYPHIMURIUM, Strain/Indicator: TA100, Metabolic Activation: RAT, LIVER, S-9, AROCLOR 1254, Method: STANDARD PLATE): active; positive
- mutagenic call (Test System: AMES SALMONELLA TYPHIMURIUM, Strain/Indicator: TA100, Metabolic Activation: RAT, LIVER, S-9, Method: STANDARD PLATE): inactive; negative
- mutagenic call (Test System: AMES SALMONELLA TYPHIMURIUM, Strain/Indicator: TA1535, Metabolic Activation: MOUSE, LIVER, S-9, AROCLOR 1254, Method: STANDARD PLATE): inactive; negative
- mutagenic call (Test System: AMES SALMONELLA TYPHIMURIUM, Strain/Indicator: TA1535, Metabolic Activation: NONE, Method: PREINCUBATION): inactive; negative
- mutagenic call (Test System: AMES SALMONELLA TYPHIMURIUM, Strain/Indicator: TA1535, Metabolic Activation: NONE, Method: STANDARD PLATE): inactive; negative
- mutagenic call (Test System: AMES SALMONELLA TYPHIMURIUM, Strain/Indicator: TA1535, Metabolic Activation: RAT, LIVER, S-9, AROCLOR 1254, Method: STANDARD PLATE): inactive; negative
- mutagenic call (Test System: AMES SALMONELLA TYPHIMURIUM, Strain/Indicator: TA1535, Metabolic Activation: RAT, LIVER, S-9, TETRACHLOROBIPHENYL, Method: PREINCUBATION): inactive; negative
- mutagenic call (Test System: AMES SALMONELLA TYPHIMURIUM, Strain/Indicator: TA1535, Metabolic Activation: RAT, LIVER, S-9, Method: STANDARD PLATE): inactive; negative
- mutagenic call (Test System: AMES SALMONELLA TYPHIMURIUM, Strain/Indicator: TA1537, Metabolic Activation: HAMSTER, LIVER, S-9, AROCLOR 1254, Method: STANDARD PLATE): active; positive
- mutagenic call (Test System: AMES SALMONELLA TYPHIMURIUM, Strain/Indicator: TA1537, Metabolic Activation: HAMSTER, LIVER, S-9, Method: STANDARD PLATE): active; positive
- mutagenic call (Test System: AMES SALMONELLA TYPHIMURIUM, Strain/Indicator: TA1537, Metabolic Activation: MOUSE, LIVER, S-9, AROCLOR 1254, Method: STANDARD PLATE): active; positive
- mutagenic call (Test System: AMES SALMONELLA TYPHIMURIUM, Strain/Indicator: TA1537, Metabolic Activation: MOUSE, LIVER, S-9, Method: STANDARD PLATE): active; positive
- mutagenic call (Test System: AMES SALMONELLA TYPHIMURIUM, Strain/Indicator: TA1537, Metabolic Activation: NONE, Method: FLUCTUATION (MICROTITER)): active; positive
- mutagenic call (Test System: AMES SALMONELLA TYPHIMURIUM, Strain/Indicator: TA1537, Metabolic Activation: NONE, Method: PREINCUBATION): active; positive
- mutagenic call (Test System: AMES SALMONELLA TYPHIMURIUM, Strain/Indicator: TA1537, Metabolic Activation: RAT, LIVER, S-9, AROCLOR 1254, Method: STANDARD PLATE): active; positive
- mutagenic call (Test System: AMES SALMONELLA TYPHIMURIUM, Strain/Indicator: TA1537, Metabolic Activation: RAT, LIVER, S-9, TETRACHLOROBIPHENYL, Method: PREINCUBATION): active; positive
- mutagenic call (Test System: AMES SALMONELLA TYPHIMURIUM, Strain/Indicator: TA1537, Metabolic Activation: RAT, LIVER, S-9, Method: STANDARD PLATE): active; positive
- mutagenic call (Test System: AMES SALMONELLA TYPHIMURIUM, Strain/Indicator: TA1538, Metabolic Activation: HAMSTER, LIVER, S-9, AROCLOR 1254, Method: STANDARD PLATE): active; positive
- mutagenic call (Test System: AMES SALMONELLA TYPHIMURIUM, Strain/Indicator: TA1538, Metabolic Activation: HAMSTER, LIVER, S-9, Method: STANDARD PLATE): active; positive
- mutagenic call (Test System: AMES SALMONELLA TYPHIMURIUM, Strain/Indicator: TA1538, Metabolic Activation: MOUSE, LIVER, S-9, AROCLOR 1254, Method: STANDARD PLATE): active; positive
- mutagenic call (Test System: AMES SALMONELLA TYPHIMURIUM, Strain/Indicator: TA1538, Metabolic Activation: MOUSE, LIVER, S-9, Method: STANDARD PLATE): active; positive
- mutagenic call (Test System: AMES SALMONELLA TYPHIMURIUM, Strain/Indicator: TA1538, Metabolic Activation: NONE, Method: PREINCUBATION): inactive; negative
- mutagenic call (Test System: AMES SALMONELLA TYPHIMURIUM, Strain/Indicator: TA1538, Metabolic Activation: RAT, LIVER, S-9, AROCLOR 1254, Method: STANDARD PLATE): active; positive
- mutagenic call (Test System: AMES SALMONELLA TYPHIMURIUM, Strain/Indicator: TA1538, Metabolic Activation: RAT, LIVER, S-9, TETRACHLOROBIPHENYL, Method: PREINCUBATION): active; positive
- mutagenic call (Test System: AMES SALMONELLA TYPHIMURIUM, Strain/Indicator: TA1538, Metabolic Activation: RAT, LIVER, S-9, Method: STANDARD PLATE): active; positive
- mutagenic call (Test System: AMES SALMONELLA TYPHIMURIUM, Strain/Indicator: TA1977, Metabolic Activation: NONE, Method: PREINCUBATION): active; positive
- mutagenic call (Test System: AMES SALMONELLA TYPHIMURIUM, Strain/Indicator: TA1977, Metabolic Activation: RAT, LIVER, S-9, TETRACHLOROBIPHENYL, Method: PREINCUBATION): active; positive
- mutagenic call (Test System: AMES SALMONELLA TYPHIMURIUM, Strain/Indicator: TA1978, Metabolic Activation: RAT, LIVER, S-9, TETRACHLOROBIPHENYL, Method: PREINCUBATION): active; positive
- mutagenic call (Test System: AMES SALMONELLA TYPHIMURIUM, Strain/Indicator: TA7001, Metabolic Activation: NONE, Method: FLUCTUATION (MICROTITER)): inactive; negative
- mutagenic call (Test System: AMES SALMONELLA TYPHIMURIUM, Strain/Indicator: TA7002, Metabolic Activation: NONE, Method: FLUCTUATION (MICROTITER)): inactive; negative
- mutagenic call (Test System: AMES SALMONELLA TYPHIMURIUM, Strain/Indicator: TA7003, Metabolic Activation: NONE, Method: FLUCTUATION (MICROTITER)): inactive; negative
- mutagenic call (Test System: AMES SALMONELLA TYPHIMURIUM, Strain/Indicator: TA7004, Metabolic Activation: NONE, Method: FLUCTUATION (MICROTITER)): inactive; negative
- mutagenic call (Test System: AMES SALMONELLA TYPHIMURIUM, Strain/Indicator: TA7005, Metabolic Activation: NONE, Method: FLUCTUATION (MICROTITER)): active; positive
- mutagenic call (Test System: AMES SALMONELLA TYPHIMURIUM, Strain/Indicator: TA7006, Metabolic Activation: NONE, Method: FLUCTUATION (MICROTITER)): inactive; negative
- mutagenic call (Test System: CHINESE HAMSTER OVARY, Strain/Indicator: CHO-K1-BH4 (HGPRT)/6-THIOGUANINE, Metabolic Activation: NONE, Method: SUSPENSION/PLATE): active; positive
- mutagenic call (Test System: CHINESE HAMSTER V-79, Strain/Indicator: V-79/6-THIOGUANINE, Metabolic Activation: NONE, Method: FLASK ASSAY): active; positive
- mutagenic call (Test System: E. COLI, Strain/Indicator: WP2 UVRA, Metabolic Activation: HAMSTER, LIVER, S-9, AROCLOR 1254, Method: STANDARD PLATE): inactive; negative
- mutagenic call (Test System: E. COLI, Strain/Indicator: WP2 UVRA, Metabolic Activation: HAMSTER, LIVER, S-9, Method: STANDARD PLATE): inactive; negative
- mutagenic call (Test System: E. COLI, Strain/Indicator: WP2 UVRA, Metabolic Activation: MOUSE, LIVER, S-9, Method: STANDARD PLATE): inactive; negative
- mutagenic call (Test System: E. COLI, Strain/Indicator: WP2 UVRA, Metabolic Activation: NONE, Method: STANDARD PLATE): inactive; negative
- mutagenic call (Test System: MOUSE LYMPHOMA, Strain/Indicator: L5178Y (TK+/TK-), Metabolic Activation: NONE, Method: SUSPENSION/PLATE): active; positive

SMILES: CC[C@@]1(O)C[C@H](O)c2c(cc3c(c2O)C(=O)c2c(O)cccc2C3=O)[C@H]1C(=O)OC
- mutagenic call (Test System: AMES SALMONELLA TYPHIMURIUM, Strain/Indicator: TA98, Metabolic Activation: NONE, Method: STANDARD PLATE): active; positive
- mutagenic call [1]: active; positive
- mutagenic call [2]: inactive; negative
- mutagenic call (Test System: AMES SALMONELLA TYPHIMURIUM, Strain/Indicator: TA1538, Metabolic Activation: NONE, Method: STANDARD PLATE): inactive; negative
